Experimental data as given in patent US7323541B2, “Polypeptide DNA thereof and use of the same” (Takeda Pharmaceutical Company Limited, priority 2001, dated 2008).
Where no end group is shown, it is not given here.

Target: T1, TGR23-2 expressing CHO cells (Homo sapiens, UniProt Q6W5P4, N107I/Q344R)
T1 construct: the clones having the cDNA of TGR23-2, which is contained in pTB2174, were selected; expressed in transfected cells; host or cells: hamster CHO/dhfr- cells, vector pAKKO-111H (pAKKO-TGR23-2)
T1 sequence (Q6W5P4 1-371 N107I/Q344R): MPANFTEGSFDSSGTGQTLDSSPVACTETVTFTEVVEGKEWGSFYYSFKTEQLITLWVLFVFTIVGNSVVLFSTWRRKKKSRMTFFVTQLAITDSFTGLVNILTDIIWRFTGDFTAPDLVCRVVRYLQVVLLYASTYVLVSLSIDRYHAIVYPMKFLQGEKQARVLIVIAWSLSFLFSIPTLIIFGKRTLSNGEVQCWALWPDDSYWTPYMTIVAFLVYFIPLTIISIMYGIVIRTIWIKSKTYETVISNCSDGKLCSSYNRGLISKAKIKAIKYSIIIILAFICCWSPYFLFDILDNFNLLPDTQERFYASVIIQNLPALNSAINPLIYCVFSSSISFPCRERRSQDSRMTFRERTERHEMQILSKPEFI
Assay: Enhancing activity of intracellular cAMP production
Type: cell-based
Protocol: The CHO/TGR23-2 cells prepared in Example 1 and selected in Example 2 were plated on 24-well plate at 7×10^4 cells/well and cultured for 48 hours. The cells were washed with αMEM medium (pH7.5) containing 0.2 mM 3-isobutyl-methylxanthine, 0.05% BSA and 20 mM HEPES (hereafter, αMEM medium (pH7.5) containing 0.2 mM 3-isobutyl-methylxanthine, 0.05% BSA and 20 mM HEPES may be referred to as a reaction buffer). Subsequently, 0.5 ml of the reaction buffer was added, and the solution was incubated for 30 minutes in the incubator. The reaction buffer was removed and 0.25 ml of the reaction buffer was freshly added to the cells. Then, the cells were admixed with a sample and 0.25 ml of the reaction buffer containing 2 μM forskoline, and incubated at 37° C. for 30 minutes. Intracellular cAMP was extracted by removing the reaction solution and adding 0.5 ml of the solution for cell lysis attached with cAMP EIA Kit (Applied Biosystems). The cAMP level in the extract was quantified with the same kit. Based on this measured value, a calculation was made using the following formula, and the enhancing/inhibiting activity for cAMP production was represented by % of control. The activity of the sample-adding group was calculated using a control value configured in each plate. % of control=(X−C)/(T−C)×100
X: The cAMP level in the sample-adding group
T: The means of the cAMP level in 3 wells of positive control (no sample, with stimulus of forskoline)
C: The means of the cAMP level in 3 wells of negative control (no sample, without stimulus of forskoline)
In addition, for the same sample, in accordance with the method shown in Example 4, an arachidonic acid metabolite releasing activity was assayed.
Four microlitters each of the above-mentioned HPLC active fractions of rat whole brain extracts (Fraction numbers 18, 20 and 22 to 23) was added to 100 μl of 0.2 M ammonium acetate and incubated at 37° C. for 2 hours with 3 μg of Pronase. Subsequently, Pronase added, was inactivated by heating in boiling water for 10 minutes. To this solution, one ml of distilled water containing 0.05 mg of BSA and 0.05 mg of CHAPS was added. Further, it was lyophilized. For the lyophilized sample, enhancing activity for intracellular cAMP production was assayed by adding to TGR23-2 expressing CHO cells according to the method shown in Example 3.
Human TGR23-2 ligand (1-20) prepared by the method described in Example 17 was administered to TGR23-1 expressing CHO cells and TGR23-2 expressing CHO cells at a variety of concentrations according to the method described in Example 3, and the enhancing activity of intracellular cAMP production was determined.
Further, human TGR23-2 ligand (1-20) and rat TGR23-2 ligand (1-18) prepared by the method described in Example 19 were administered to TGR23-1 expressing CHO cells and TGR23-2 expressing CHO cells at a variety of concentrations, and the same assay as described above was carried out under the condition of no forskolin. A calculation was made using the following formula, and the enhancing activity for cAMP production was represented by % of control: % of control=X/C×100;
X: The cAMP level in the sample-adding group; and
C: Control (no sample, without stimulus of forskoline).

## SFRNGVGSGVKKTSFRRA [rat TGR23-2 ligand (1-18), Ser-Phe-Arg-Asn-Gly-Val-Gly-Ser-Gly-Val-Lys-Lys-Thr-Ser-Phe-Arg-Arg-Ala]
No forskolin
  enhancing activity of intracellular cAMP production: enhance the intracellular cAMP production
With forskolin
  enhancing activity of intracellular cAMP production: specifically exhibits an enhancing activity for cAMP production

## SFRNGVGTGMKKTSFQRAKS [human TGR23-2 ligand (1-20)]
No forskolin
  enhancing activity of intracellular cAMP production: enhance the intracellular cAMP production
With forskolin
  enhancing activity of intracellular cAMP production: clearly enhances cAMP production
